Among the data in patent US7737143B2, “Substituted pyrazines as kinase inhibitors” (YM Biosciences Australia Pty Ltd, priority 2003, dated 2010) are inhibition values, retold here.

Assay type in all cases: biochemical
For assay [1], the target named is T1, human JAK2 (Homo sapiens, UniProt O60674).
T1 construct: The kinase domain of human JAK2 was amplified from U937mRNA; His tag (pFastBac HTc vector; nickel chelate purification) (N); made in house; host or cells: baculovirus; Sf9 for virus, High Five insect cells for production
The assay can be described thus: JAK kinase assay (ELISA or Alphascreen), Jak2. To be noted: standard conditions, read-out: Jak2 inhibition of enzyme activity. From the text:
The kinase domain of human JAK2 was amplified from U937mRNA using the polymerase chain reaction with the following primers: […]
JAK2 PCR products were cloned into the pFastBac HTc expression vector (Gibco) via the Sal I and Not I sites. The JAK2 plasmid was then transformed into competent DHL10Bac cells (Gibco), and the recombinant baculovirus produced prepared for transfection into Sf9 insect cells.
(§1) Baculovirus preparations from each of the JAK family members were infected into five litres of High Five cells (Invitrogen) grown in High Five serum free medium (Invitrogen) to a cell density of approximately 1-2×10^6 cells/ml. Cells are infected with virus at a MOI of 0.8-3.0. Cells were harvested and lysed. JAK kinase domains were purified by affinity chromatography on a Probond (Invitrogen) nickel chelate affinity column.
(§2) Kinase assays were performed either in a 96 well capture-based ELISA assay or in 384 well Optiplates (Packard) using an Alphascreen Protein Tyrosine Kinase kit. In either case using approximately 15 μg of affinity purified PTK domain in the presence of 50 mM HEPES, pH 7.5, 10 mM MgCl2 150 mM NaCl and 10 μM-1 mM ATP. The biotinylated substrate biotin-EGPWLEEEEEAYGWMDF-NH2 (final concentration 5 μM) was used as substrate. In the ELISA assay tyrosine phosphorylation was quantitated following transfer to an avidin coated ELISA plate using peroxidase-linked anti-phospho-tyrosine antibody PY20. In the Alphascreen assay, Alphascreen phosphotyrosine acceptor beads followed by streptavidin donor beads were added under subdued light. The ELISA plates were read on a BMG Fluorostar, the Alphascreen plates were read on a Packard Fusion Alpha. Inhibitors were added to the assays fifteen minutes prior to the addition of ATP. Inhibitors were added in aqueous DMSO, with DMSO concentrations never exceeding 1%.
In general terms: ELISA stands for enzyme-linked immunosorbent assay.

For assay [2], the target named is T2, human JAK3 (Homo sapiens, UniProt P52333).
T2 construct: The kinase domain of human JAK3 was amplified from U937mRNA; His tag (pFastBac HTb vector; nickel chelate purification) (N); made in house; host or cells: baculovirus; Sf9 for virus, High Five insect cells for production
The assay can be described thus: JAK kinase assay (ELISA or Alphascreen), Jak3. To be noted: standard conditions, read-out: Jak3 inhibition of enzyme activity.
From the text: The kinase domain of human JAK3 was amplified from U937mRNA using the polymerase chain reaction with the following primers: […]
JAK3 PCR products were cloned into the pFastBac HTb expression vector (Gibco) via the Xho I and Kpn I sites. The JAK3 plasmid was then transformed into competent DH10Bac cells (Gibco), and the recombinant baculovirus produced prepared for transfection into Sf9 insect cells.
as §1, §2

The target in assay [3] is T3, zap70 (Homo sapiens, UniProt P43403).
T3 sequence (P43403 338-600 limits assumed): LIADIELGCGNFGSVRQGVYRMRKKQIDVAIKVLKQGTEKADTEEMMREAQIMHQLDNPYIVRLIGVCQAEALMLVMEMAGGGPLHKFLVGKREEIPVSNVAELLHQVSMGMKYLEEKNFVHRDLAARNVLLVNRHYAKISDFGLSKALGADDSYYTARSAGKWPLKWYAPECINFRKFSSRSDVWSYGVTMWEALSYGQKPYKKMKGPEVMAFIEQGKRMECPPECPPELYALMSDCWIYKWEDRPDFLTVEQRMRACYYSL
The assay can be described thus: Kinase assay (ELISA or Alphascreen), zap70. As to conditions: standard conditions, read-out: zap70 inhibition of enzyme activity. How it is done:
as §2

In assay [4] the target is kdr (Homo sapiens, UniProt P35968). Briefly: Kinase assay (ELISA or Alphascreen), kdr. As to conditions: standard conditions, read-out: kdr inhibition of enzyme activity. How it is done: as §2
The target of assay [5] is hck (Homo sapiens, UniProt P08631). The assay can be described thus: Kinase assay (ELISA or Alphascreen), hck. As to conditions: standard conditions, read-out: hck inhibition of enzyme activity. How it is done: as §2
Assay [6] addresses tie2 (Homo sapiens, UniProt Q02763). Briefly: Kinase assay (ELISA or Alphascreen), tie2. As to conditions: standard conditions, read-out: tie2 inhibition of enzyme activity. On the procedure:
as §2

T1 sequence (O60674 849-1124 limits assumed): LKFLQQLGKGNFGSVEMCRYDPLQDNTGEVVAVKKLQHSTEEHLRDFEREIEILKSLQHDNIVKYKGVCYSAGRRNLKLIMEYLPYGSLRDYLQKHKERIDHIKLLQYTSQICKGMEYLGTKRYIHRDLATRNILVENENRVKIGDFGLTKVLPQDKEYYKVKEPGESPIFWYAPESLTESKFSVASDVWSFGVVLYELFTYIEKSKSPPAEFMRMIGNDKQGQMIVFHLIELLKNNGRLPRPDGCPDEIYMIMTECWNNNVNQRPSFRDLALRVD
Sequence of hck (P08631 262-515 limits assumed, species assumed): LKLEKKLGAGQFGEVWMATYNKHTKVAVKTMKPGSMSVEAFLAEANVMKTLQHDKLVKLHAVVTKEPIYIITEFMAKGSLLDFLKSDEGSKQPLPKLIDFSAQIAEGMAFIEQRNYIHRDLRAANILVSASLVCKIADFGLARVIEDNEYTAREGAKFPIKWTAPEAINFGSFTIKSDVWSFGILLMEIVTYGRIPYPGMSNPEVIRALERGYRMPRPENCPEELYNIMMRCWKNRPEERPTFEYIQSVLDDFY
Sequence of kdr (P35968 834-1162 limits assumed, species assumed): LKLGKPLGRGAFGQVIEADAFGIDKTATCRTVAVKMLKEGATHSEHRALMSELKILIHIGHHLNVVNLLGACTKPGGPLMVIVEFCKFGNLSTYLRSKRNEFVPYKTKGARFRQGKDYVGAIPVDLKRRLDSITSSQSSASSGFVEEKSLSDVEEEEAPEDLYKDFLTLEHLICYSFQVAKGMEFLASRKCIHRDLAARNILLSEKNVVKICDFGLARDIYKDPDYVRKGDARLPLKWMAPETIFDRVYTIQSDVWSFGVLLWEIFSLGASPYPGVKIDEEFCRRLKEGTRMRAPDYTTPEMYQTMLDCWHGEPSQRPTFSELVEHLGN
Sequence of tie2 (Q02763 824-1096 limits assumed, species assumed): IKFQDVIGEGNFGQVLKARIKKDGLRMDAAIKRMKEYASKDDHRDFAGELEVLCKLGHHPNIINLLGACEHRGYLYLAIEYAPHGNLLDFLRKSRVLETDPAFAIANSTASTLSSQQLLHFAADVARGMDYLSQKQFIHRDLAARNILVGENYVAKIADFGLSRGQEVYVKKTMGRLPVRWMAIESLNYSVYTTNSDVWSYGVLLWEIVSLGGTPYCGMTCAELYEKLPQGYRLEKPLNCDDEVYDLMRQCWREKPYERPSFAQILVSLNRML
T2 sequence (P52333 822-1111 limits assumed): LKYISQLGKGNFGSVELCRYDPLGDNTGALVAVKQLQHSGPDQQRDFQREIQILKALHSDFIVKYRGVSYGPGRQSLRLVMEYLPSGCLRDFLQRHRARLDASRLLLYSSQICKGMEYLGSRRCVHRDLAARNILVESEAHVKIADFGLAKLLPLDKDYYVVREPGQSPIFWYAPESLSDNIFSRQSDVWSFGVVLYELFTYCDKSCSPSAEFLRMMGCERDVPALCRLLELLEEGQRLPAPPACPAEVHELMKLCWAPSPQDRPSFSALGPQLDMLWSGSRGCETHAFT

On to `CO/C=C\N(C)CCCCNC(=O)c1ccc2ncn(-c3cncc(N[C@@H](C)c4ccccc4)n3)c2c1`, for which the inhibition at 20 µM in assay [1], in assay [2], in assay [3] and in assay [4] was no less than 50% throughout.
`CC(Nc1cncc(-n2cnc3ccccc32)n1)c1ccncc1` (stereo not drawn): the inhibition (in general, the share of the control response that was lost under treatment) at 20 µM in assay [1] was less than 50%; in assay [2] it was less than 50%; in assay [4] it was no less than 50%.
`C[C@H](Nc1cncc(-n2cnc3cc(NC(=O)c4ccc(CN5CCN(C)CC5)cc4)ccc32)n1)c1ccccc1`: the inhibition at 20 µM in assay [1] is less than 50%; in assay [2], less than 50%; in assay [3], no less than 50%; in assay [5], no less than 50%.
As to `Nc1ccc(-c2cncc(-n3cnc4ccccc43)n2)cc1`, the inhibition at 20 µM is no less than 50% in assay [1], less than 50% in assay [2] and no less than 50% in assay [3].
As to `COc1cccc([C@H](C)Nc2cncc(-n3cnc4ccccc43)n2)c1`, the inhibition at 20 µM in assay [1] is less than 50%; in assay [2], less than 50%; in assay [4] it was no less than 50%.
Turning to `CC(Nc1cncc(-n2cnc3ccc(CO)cc32)n1)c1ccc(F)cc1` (stereo not drawn), the inhibition at 20 µM is no less than 50% in assay [1], less than 50% in assay [2] and no less than 50% in assay [4].
`CC(Nc1cncc(-n2cnc3cc(CO)ccc32)n1)c1ccc(F)cc1` (stereo not drawn): the inhibition at 20 µM in assay [1] is less than 50%; in assay [2] it was less than 50%; in assay [4] it was no less than 50%.
Regarding `CNCCN(C)Cc1ccc2ncn(-c3cncc(NC(C)c4ccc(F)cc4)n3)c2c1` (stereo not drawn), the inhibition at 20 µM was less than 50% in assay [1], less than 50% in assay [2] and no less than 50% in assay [4].
Regarding `CC(Nc1cncc(N2CNc3cc(CN4CCN(C)CC4)ccc32)n1)c1ccc(F)cc1` (stereo not drawn), the inhibition at 20 µM in assay [1] is less than 50%; in assay [2], less than 50%; in assay [4], no less than 50%.
For `CCN(CC)Cc1ccc2c(c1)ncn2-c1cncc(NC(C)c2ccc(F)cc2)n1` (stereo not drawn), the figures for the inhibition at 20 µM in assay [1], in assay [2] and in assay [4] were less than 50%, less than 50% and no less than 50%, respectively.
Take `CC(Nc1cncc(-n2cnc3cc(CN(C)C)ccc32)n1)c1ccc(F)cc1` (stereo not drawn): the values for the inhibition at 20 µM in assay [1], in assay [2] and in assay [4] were less than 50%, less than 50% and no less than 50%, respectively.
For the molecule `CC(Nc1cncc(-n2cnc3cnccc32)n1)c1ccc(F)cc1` (stereo not drawn), the figures for the inhibition at 20 µM in assay [1], in assay [2] and in assay [4] were no less than 50%, less than 50% and no less than 50%, respectively.
For `C[C@H](Nc1cncc(-n2cnc3ccc(CN4CCNCC4)cc32)n1)c1ccc(F)cc1`, the inhibition at 20 µM is less than 50% in assay [1], no less than 50% in assay [2] and no less than 50% in assay [6].
`C[C@H](Nc1cncc(-n2cnc3ccc(CN4CCOCC4)cc32)n1)c1ccc(F)cc1`: the inhibition at 20 µM is no less than 50% in assay [1], less than 50% in assay [2] and no less than 50% in assay [5].
Regarding `C[C@H](Nc1cncc(-n2cnc3ccc(CN4CCCCC4)cc32)n1)c1ccc(F)cc1`, the inhibition at 20 µM in assay [1] and in assay [2] was no less than 50% each time.
Regarding `C[C@H](Nc1cncc(-n2cnc3ccc(CN4CCCC4)cc32)n1)c1ccc(F)cc1`, the inhibition at 20 µM was no less than 50% in assay [1], less than 50% in assay [2] and no less than 50% in assay [6].
For `C[C@H](Nc1cncc(-n2cnc3ccc(CN(CCO)CCO)cc32)n1)c1ccc(F)cc1`, the figures for the inhibition at 20 µM in assay [1], in assay [2] and in assay [5] were no less than 50%, less than 50% and no less than 50%, respectively.
In the case of `N#Cc1ccc2ncn(-c3cncc(N[C@H]4CCc5ccccc54)n3)c2c1`, the inhibition at 20 µM in assay [1], in assay [2] and in assay [6] was no less than 50% in each case.
In the case of `N#Cc1ccc2c(c1)ncn2-c1cncc(N[C@H]2CCc3ccccc32)n1`, the inhibition at 20 µM in assay [1], in assay [2], in assay [6] and in assay [4] was no less than 50% in each case.
For `C[C@H](Nc1cncc(-n2cnc3cc(-c4nn[nH]n4)ccc32)n1)c1ccc(F)cc1`, the inhibition at 20 µM is less than 50% in assay [1], less than 50% in assay [2] and no less than 50% in assay [3].
As for `C[C@H](Nc1cncc(-n2cnc3ccccc32)n1)c1ccc(F)cc1`, the inhibition at 20 µM in assay [1], in assay [2] and in assay [3] was no less than 50% throughout.
Take `CC(Nc1cncc(-n2cnc3cc(C#N)ccc32)n1)c1cccnc1` (stereo not drawn): the inhibition at 20 µM in assay [1], in assay [2] and in assay [5] was no less than 50% in each case.
On to `CC(Nc1cncc(-n2cnc3ccc(C#N)cc32)n1)c1cccc(F)c1` (stereo not drawn), for which the inhibition at 20 µM in assay [1], in assay [2] and in assay [5] was no less than 50% throughout.
For `CC(Nc1cncc(-n2cnc3ccc(C#N)cc32)n1)c1cc(F)cc(F)c1` (stereo not drawn), the inhibition at 20 µM in assay [1], in assay [2] and in assay [5] was no less than 50% each time.
In the case of `CC(Nc1cncc(-n2cnc3cc(C#N)ccc32)n1)c1ccc(F)c(Cl)c1` (stereo not drawn), the results for the inhibition at 20 µM in assay [1], in assay [2] and in assay [5] were no less than 50%, less than 50% and no less than 50%, respectively.
Regarding `CC[C@H](Nc1cncc(-n2cnc3cc(C#N)ccc32)n1)c1ccccc1`, the inhibition at 20 µM in assay [1], in assay [2], in assay [6] and in assay [4] was no less than 50% in each case.
`Cc1ccc([C@H](C)Nc2cncc(-n3cnc4ccc(C#N)cc43)n2)cc1`: the inhibition at 20 µM in assay [1], in assay [2] and in assay [3] was no less than 50% each time.
Regarding `C[C@@H](c1ccccc1)N(C)c1cncc(-n2cnc3ccc(C#N)cc32)n1`, the inhibition at 20 µM in assay [1], in assay [2] and in assay [4] was no less than 50% each time.
For the molecule `Cc1ncc(-n2cnc3cc(C#N)ccc32)nc1N[C@@H](C)c1ccccc1`, the inhibition at 20 µM in assay [1], in assay [2] and in assay [4] was no less than 50% in each case.
Consider `COc1ccc2c(c1)CCC2Nc1cncc(-n2cnc3ccc(C#N)cc32)n1` (stereo not drawn), for which the inhibition at 20 µM in assay [1] is less than 50%; in assay [2] it was less than 50%; in assay [5], no less than 50%.
Consider `N#Cc1ccc2c(c1)ncn2-c1cncc(NC2CCc3cc(F)ccc32)n1` (stereo not drawn), for which the inhibition at 20 µM in assay [1], in assay [2] and in assay [6] was no less than 50% in each case.
Take `Cc1ncc(-n2cnc3ccc(C#N)cc32)nc1N[C@@H](C)c1cccc(F)c1`: the inhibition at 20 µM in assay [1], in assay [2] and in assay [6] was no less than 50% in each case.
